Read-outs that look alike come from different tables or passages of the source.
Assays:
[1] = pure solvent; cited from earlier work
[2] = solubility parameter, Table 1; cited from earlier work
[3] = cited from earlier work; for BP: Table 1
[4] = From the text: Parameters such as the lethal dose 50 (LD50), lethal concentration 50 (LC50), cardiac sensitization, skin irritation, and mutagenicity (e.g., via the Ames test) can be used as toxicity metrics. The LDn or LCn abbreviations, where n is the percent lethality, are used for the dose of a toxicant lethal to n % of a test population. […] Cardiac sensitization is a measure of the ability of a compound to cause cardiac arrhythmia under stress.
The property modification components are chosen from a list of potential replacement solvents. These compounds included halogenated compounds such as halogenated acetates, alcohols, alkanes, cycloalkanes, alkenes, cycloalkenes, amines, anhydrides, aromatics, carbonyls, diones, esters, ethers, heterocyclics and ketones.

[5] = Test 3 - Acid retention (titration before and after concentrated HCl); format: physicochemical
Experimental: In order to measure the ability of each solvent to absorb acid, a titration of each solvent before and after concentrated HCl addition was performed. The difference between how much titrant was needed to neutralize the solvent after the addition of acid and the amount of titrant needed to neutralize the initial solvent was a simple way to determine how much acid was absorbed by each solvent. Mixture A advantageously absorbed more mineral acid than any of the three comparative solvents.

[6] = Test 2 - Moisture retention (Karl Fischer titration); format: physicochemical
Experimental: Each solvent (5 g) was put into a small vial and the individual samples were titrated with a Karl Fischer titration machine to evaluate how much moisture was contained in each. De-ionized water (1 g) was then added to each vial, which ensured that each sample was saturated with moisture. The samples were then agitated and allowed to phase separate. Karl Fischer analysis of the organic layer of each solvent was performed after phase separation was complete.
The difference between the saturated moisture percent and the starting sample moisture percent is the amount that was absorbed by the solvent.

[7] = Test 4 - Oil retention (oil saturation point); format: physicochemical; conditions: oil added to 4.5 g solvent until phase separation
Experimental: An oil absorption test was performed on Mixtures A, B, C, D and the three comparative solvents to see if there was a saturation point associated with any of the solvents. A 4.5 g sample of each solvent was put into a vial and oil was added to each until a phase separation or other noticeable fluid property change took place. […]. Rx-11 and oil phase separated after 0.45 g, or 10 mass % of oil were added.

[8] = cardiac sensitization relative to CFC-113

Compound	SP [2]	BP [3]	CS/CS113 [4, 8]	other results
CC(C)CBr [1-bromo-2-methylpropane]				flash point [1]: 11 °C
FC(F)(F)O/C=C/OC(F)(F)Br [(E)-1-(bromodifluoromethoxy)-2-(trifluoromethoxy)ethene]	7.79 (cal/cm^3)^1/2	76.5 C.	144.9	
FC(F)(F)/C=C/OC(F)(F)Br [(E)-1-(bromodifluoromethoxy)-2-(trifluoromethyl)ethene]	7.73 (cal/cm^3)^1/2	57.8 C.	54.3	
FC(F)(F)/C=C/C(F)(F)Br [(E)-1-bromo-1,1,4,4,4-pentafluoro-2-butene]	7.37 (cal/cm^3)^1/2	40.0 C.	36.6	
F/C(=C(/F)C(F)(F)Br)C(F)(F)F [(E)-1-bromo-perfluoro-2-butene]	6.85 (cal/cm^3)^1/2	48.0 C.	41.4	
FC(F)(F)/C(Cl)=C(\Cl)C(F)(F)F [(E)-2,3-dichlorohexafluoro-2-butene]	7.15 (cal/cm^3)^1/2	68.5 C.	72.4	
F/C(=C(/Br)C(F)(F)F)C(F)(F)F [(E)-2-bromo-1,1,1,3,4,4,4-heptafluoro-2-butene]	6.82 (cal/cm^3)^1/2	49.0 C.	48.6	
FC(F)(F)/C=C(/Br)C(F)(F)F [(E)-2-bromo-1,1,1,4,4,4-hexafluoro-2-butene]	7.06 (cal/cm^3)^1/2	45.1 C.	42.7	
F/C(OC(F)(F)Br)=C(\F)C(F)(F)F [(Z)-1-(bromodifluoromethoxy)-1,2,3,3,3-pentafluoro-1-propene]	7.22 (cal/cm^3)^1/2	65.2 C.	70.1	
FC(F)(F)O/C=C\OC(F)(F)Br [(Z)-1-(bromodifluoromethoxy)-2-(trifluoromethoxy)ethene]	7.79 (cal/cm^3)^1/2	76.5 C.	144.9	
FC(F)(F)/C=C\OC(F)(F)Br [(Z)-1-(bromodifluoromethoxy)-2-(trifluoromethyl)ethene]	7.63 (cal/cm^3)^1/2	57.8 C.	54.3	
FC(F)(F)/C=C\C(F)(F)Br [(Z)-1-bromo-1,1,4,4,4-pentafluoro-2-butene]	7.25 (cal/cm^3)^1/2	40.0 C.	36.6	
F/C(Br)=C(/F)OCC(F)(F)F [(Z)-1-bromo-1,2-difluoro-2-(2,2,2-trifluoroethoxy)-ethene]	7.61 (cal/cm^3)^1/2	87.9 C.	52.7	
F/C(=C(\F)C(F)(F)Br)C(F)(F)F [(Z)-1-bromo-perfluoro-2-butene]	6.78 (cal/cm^3)^1/2	48.0 C.	41.4	
F/C(=C(\Br)C(F)(F)F)C(F)(F)F [(Z)-2-bromo-1,1,1,3,4,4,4-heptafluoro-2-butene]	6.79 (cal/cm^3)^1/2	49.0 C.	48.6	
Fc1c(F)c(F)c(C(F)(F)Br)c(F)c1F [(bromodifluoromethyl)-pentafluorobenzene]	7.63 (cal/cm^3)^1/2	153.3 C.	28.2	
FC(Cl)(Cl)Cl [CFC-11, trichlorofluoromethane]				Acid Number after acid ([5]; after concentrated HCl addition): 18 mg/L; Acid Number before acid ([5]; before concentrated HCl addition): 9 mg/L; Acid Absorbed ([5]; difference after minus before acid): 9 mg/L; Saturated % ([6]; moisture in organic layer after 1 g water added to 5 g solvent): 0.007%; Starting % ([6]; moisture in solvent before water addition): 0.000%; boiling point [3]: 47.6 °C; saturation point for oil [7]: no saturation point

Compound	SP [2]	BP [3]	CS/CS113 [4, 8]	other results
CCO [Ethanol, ethanol]				flash point [1]: 55 ° F.
FC(F)(F)COCC(F)(F)F [bis(2,2,2-trifluoroethyl)ether]	7.32 (cal/cm^3)^1/2	62.5 C.	109.2	
FC(F)OC(F)(F)C(F)(F)OC(F)F [bis(difluoromethoxy)-tetrafluoroethane]	7.50 (cal/cm^3)^1/2	58.0 C.	362.3	
C=C(C)[C@H]1CC=C(C)CC1 [d-limonene]				flash point [1]: around 120 ° F.
COCC(C)OCC(C)OC (stereo not drawn) [dipropyleneglycol dimethylether]				flash point [1]: 149 ° F.
CCOC(F)(F)C(F)(F)C(F)(F)C(F)(F)F [ethyl-perfluorobutyl ether]	6.85 (cal/cm^3)^1/2	73.0 C.	69.0	
FCOC(C(F)(F)F)C(F)(F)F [fluoromethyl 2,2,2-trifluoro-1-(trifluoromethyl)ethyl ether, reference compound]	7.10 (cal/cm^3)^1/2	59.0 C.	103.0	
FC(OC(F)(F)C(F)(F)C(F)(F)F)C(F)(F)F (stereo not drawn) [heptafluoropropyl 1,2,2,2-tetrafluoroethyl ether]	6.62 (cal/cm^3)^1/2	41.0 C.	195.7	
CC(C)O [isopropyl alcohol]				flash point [1]: 54 ° F.
COC(C(F)(F)F)C(F)(F)F [methyl 2,2,2-trifluroethyl-1-(trifluoromethyl)ether]	7.26 (cal/cm^3)^1/2	50.8 C.	107.3	
CC(=O)C(F)(F)C(F)(F)C(F)(F)F [methyl heptafluoropropyl ketone]	7.32 (cal/cm^3)^1/2	63.5 C.	25.4	
COC(=O)C(F)(F)C(F)(F)F [methyl pentafluoropropanoate]	7.77 (cal/cm^3)^1/2	59.5 C.	27.0	
COC(F)(F)C(F)(F)C(F)(F)C(F)(F)F [methyl perfluorobutyl ether]	6.75 (cal/cm^3)^1/2	51.0 C.	53.5	
FC(F)(F)C(F)(F)C(F)(F)C(F)(F)C1(F)OC(F)(F)C(F)(F)C1(F)F (stereo not drawn) [perfluoro-2-butyltetrahydrofuran]	6.94 (cal/cm^3)^1/2	103.0 C.	65.4	
FC(F)(F)C(F)(F)C(F)(F)C(F)(F)OC(F)(F)C(F)(F)C(F)(F)C(F)(F)F [perfluorodibutyl ether]	6.65 (cal/cm^3)^1/2	110.1 C.	896.2	
Fc1c(F)c(F)c(C(F)(F)F)c(F)c1F [perfluorotoluene]	7.70 (cal/cm^3)^1/2	104.0 C.	64.0	
O=C(OC(=O)C(F)(F)F)C(F)(F)F [trifluoroacetic anhydride]	7.29 (cal/cm^3)^1/2	40.2 C.		CS/CS113 [4]: 236.9
